# Measurements published in patent US20130209441A1, “PROCESS FOR INHIBITION OF CEREBRAL DAMAGE ASSOCIATED WITH ISCHEMIA BY ANTHOCYANINS AND ANTHOCYANIDINS” (priority 2012, published 2013).
# Legend:
# pMCAO mice = test: Mouse model of permanent middle cerebral artery occlusion (pMCAO): infarct volume (TTC staining) and 18-point neurological score at 24 h; assay type: in vivo; conditions: 24 h after pMCAO, vs vehicle
# Procedure: C3G is isolated from Prunus cerasus fruits as previously described is dissolved in 0.9% normal saline (NS) and is administered by oral gavage to mice at 1-h before induction of pMCAO. Mice are randomly distributed into […] and treated with vehicle (n=10), or 1 mg/kg (n=8), 2 mg/kg (n=10), and 5 mg/kg (n=9) of C3G. The doses chosen in the present study are based on previous reports. Animals are euthanized at 24 h following pMCAO and infarct volumes are determined.
# To evaluate the effect of a delayed treatment at 3 h following pMCAO, mice are randomly assigned to vehicle (n=11), or 2 mg/kg of C3G administered orally at 3 h after pMCAO supplemented by two additional doses of 2 mg/kg of C3G 3 h apart. […] Animals are euthanized at 24 h following pMCAO and infarct volumes and neurological outcomes are determined.
# Neurological assessment of experimental mice is performed according to an 18 point-based scale at 1 h before induction of pMCAO and at 24 h following surgery. Brains are immediately removed following neurological assessment, rinsed in cold saline solution, cut into 1-mm-thick coronal sections, and processed for 2% 2,3,5-triphenylterazolium chloride (TTC) staining as previously described. The infarct volumes from individual sections are then summed to determine the total brain infarct volume and adjusted for edema (corrected infarct volume).
# All data are expressed as mean values±S.E.M. The degree of statistical significance between groups is determined on the basis of Student t-test, One-way ANOVA test, followed by post hoc Fisher LSD test, and Kruskal-Wallis rank test. SigmaStat 3.0 software (SYSTAT Software Inc., Point Richmond, Calif.) is used to carry out the analysis. Statistical significance is defined at p<0.05.
# superoxide = test: In situ detection of brain superoxide by dihydroethidium (DHE) fluorescence in pMCAO mice; assay type: in vivo, mouse; conditions: pretreatment 2 mg/kg orally; 24 h after pMCAO; vs vehicle, p<0.05
# Procedure: Measurement of superoxide is performed in situ by superoxide-selective oxidative fluorescent dye dihydroethidium cell membranes (DHE) as previously described in [3]. DHE is freely permeable across cell membranes and fluoresces red when oxidized to ethidium bromide by superoxide. Unfixed frozen brain sections (30 um) are placed on glass slides and submerged in 10^−6 mol/L DHE (Sigma) in phosphate buffered saline (PBS) buffer, pH 7.4 and incubated at 37° C. for 30 min in a dark humidified container. Fluorescence in ischemic regions of brain sections is then detected by a Zeiss 210 confocal microscope with a 590-nn long-pass filter. The intensity of the fluorescence is analyzed and quantified by densitometry (NIH Image software, version 1.37). The study included three groups (sham-operated, pMCAO with vehicle-treated, and pMCAO with 2 mg/kg of CG-treated mice; (n=4). Four brain sections of each mouse and five fields in each section are measured to calculate mean levels of the brain superoxide. Mitochondria are prepared from adult mouse brains (6-8 weeks old) by using the Percoll gradient method, as previously described. After decapitation, the brain is quickly removed and washed in the isolation buffer (300 mM sucrose, 0.1 mM EGTA, 10 mM HEPES, pH 7.4). The brain is homogenized in 15 ml of buffer by using hand-held glass Potter-Elvehjem homogenizer with PTFE pestle. […]
# [1] = tested on: cyt c release from isolated mitochondria; test: Cyt c release from isolated mouse brain mitochondria (immunoblot of supernatant); assay type: biochemical; conditions: for cyt c release in response to Ca2+: Ca2+ 100 μM stimulation
# Procedure: Measurement of superoxide is performed in situ by superoxide-selective oxidative fluorescent dye dihydroethidium cell membranes (DHE) as previously described in [3]. DHE is freely permeable across cell membranes and fluoresces red when oxidized to ethidium bromide by superoxide. Unfixed frozen brain sections (30 um) are placed on glass slides and submerged in 10^−6 mol/L DHE (Sigma) in phosphate buffered saline (PBS) buffer, pH 7.4 and incubated at 37° C. for 30 min in a dark humidified container. Fluorescence in ischemic regions of brain sections is then detected by a Zeiss 210 confocal microscope with a 590-nn long-pass filter. The intensity of the fluorescence is analyzed and quantified by densitometry (NIH Image software, version 1.37). The study included three groups (sham-operated, pMCAO with vehicle-treated, and pMCAO with 2 mg/kg of CG-treated mice; (n=4). Four brain sections of each mouse and five fields in each section are measured to calculate mean levels of the brain superoxide. Mitochondria are prepared from adult mouse brains (6-8 weeks old) by using the Percoll gradient method, as previously described. After decapitation, the brain is quickly removed and washed in the isolation buffer (300 mM sucrose, 0.1 mM EGTA, 10 mM HEPES, pH 7.4). The brain is homogenized in 15 ml of buffer by using hand-held glass Potter-Elvehjem homogenizer with PTFE pestle. After 5 strokes, the cell debris and nuclei are centrifuged at 1330×g for 5 min. The supernatant is further centrifuged at 21,200×g for 10 min. Mitochondrial fraction is resuspended in 15% Percoll solution diluted in the isolation buffer and layered on top of a discontinuous Percoll gradient of 25/40%. The density gradient is centrifuged at 30,700×g for 10 min and mitochondria are collected from the interface between 25 and 40% Percoll solution, transferred to a new tube, and washed in 10 mL of isolation buffer by centrifugation at 6700×g for 10 min. The resulting pellet is suspended in the isolation buffer without EGTA and further diluted to 2 mg/mL in assay buffer for the cyt c release assay. 50 μL of mitochondria are then mixed with buffer or reagents in a final reaction volume of […].
# The assay buffer contains 125 mM KCI, 2 mM KH2PO4, 4 mM MgCl2 at pH 7.4, and 3 mM ATP, 0.8 mM ADP, 5 mM succinate and 2 μM rotenone for respiration. Mitochondrial suspensions diluted in the assay buffer are exposed to Ca^2+ (100 μM), S-nitrosoglutathione (GS—NO, 50 μM for nitric oxide generation) or H2O2 (50 μM for oxidative stress) in 10 min and centrifuged sat 12,000×g in 5 min. The supernatant is collected and 15 μL of aliquots are run on a SDS-PAGE gel to detect the release of cyt c by the immunoblotting assay. […]
# [2] = tested on: AIF release from isolated mitochondria; test: AIF release from isolated mouse brain mitochondria; assay type: biochemical; conditions: compound 100 μM
# Procedure: Mitochondria are prepared from mouse brains using flowing differential centrifugation procedures at 4° C. described previously. Homogenation buffer (50 μl) containing the prepared mitochondrial pellet is incubated with 25 μl of C3G at the desired concentration and the buffer added to achieve the final volume of 100 μl. The AIF release is then assessed in the presence of 100 μM of C3G in response to stimulation by GS-NO (50 μM) and H2O2 (50 μM).
smiles,measurement,setting,value
"OC[C@H]1O[C@@H](Oc2cc3c(O)cc(O)cc3[o+]c2-c2ccc(O)c(O)c2)[C@H](O)[C@@H](O)[C@@H]1O [C3G, cyanidin-3-O-glucoside]",reduction of infarct volume,pMCAO mice; 2 mg/kg oral gavage 1 h before pMCAO,27%
same,reduction of infarct volume,pMCAO mice; 5 mg/kg oral gavage 1 h before pMCAO,30%
same,reduction in infarct size,pMCAO mice; delayed treatment: 2 mg/kg orally at 3 h after pMCAO plus two additional 2 mg/kg doses 3 h apart,25%
same,neurological performance (18-point score),pMCAO mice; pretreatment 2 mg/kg orally,statistically significant better neurological performance
same,neurological performance (18-point score),pMCAO mice; pretreatment 5 mg/kg orally,statistically significant better neurological performance
same,neurological functional performance (18-point score),pMCAO mice; treatment 2 mg/kg orally at 3 h after onset of ischemia plus two additional doses,significantly better
same,fluorescent density of brain superoxide in situ,superoxide,significantly suppressed
same,cyt c release in response to Ca2+,[1]; compound 1 μM,no effect
same,cyt c release in response to Ca2+,[1]; compound 100 μM,did not prevent
same,cyt c release in response to GS-NO,"[1]; GS-NO 50 μM oxidative stress, compound 100 μM",did not prevent
same,cyt c release in response to H2O2,"[1]; H2O2 50 μM oxidative stress, compound 100 μM",did not prevent
same,AIF release in response to GS-NO,[2]; GS-NO 50 μM stimulation,partially prevented
same,AIF release in response to H2O2,[2]; H2O2 50 μM stimulation,partially prevented
